# Measured values from patent EP0189679A1, “Novel crystalline form of 1-benzhydryl-4-allylpiperazine dihydrochloride and method for the production thereof” (SO "PHARMACHIM", priority 1984, dated 1986).
# Assays:
# [1] = Initial rate of dissolution of pressed discs in 0.1 N hydrochloric acid; type: physicochemical; conditions: pressed disc 200 mg substance + 100 mg polyvinylchloride, 100 ml 0.1 N hydrochloric acid, 25°C, linear part between first and fifth minutes
# Protocol: In Table 4 which follows, there are compared the rates of dissolution of the. three crystalline forms. Investigations were carried out with pressed discs made up of 200 mg of the test substance and 100 mg of polyvinylchloride pressed at a pressure of 10 tonnes for 5 minutes in a plane around the disc using a pill making matrix with a diameter of 13 mm. The discs thus obtained are immersed by means of a special holding device in 100 ml of 0.1 N hydrochloric acid solution. Stirring was carried out by means of an electromagnetic agitator. The testing temperature employed was 25°C. The initial rates of dissolution are determined from the dissolution curves for the pressed discs, using the linear part between the first and fifth minutes. Comparison of data for the initial rate of dissolution of the three crystalline forms indicate that crystal form "A" has an initial rate of dissolution which is 3 to 4 times greater than that of the other forms.
# [2] = Solubility profile / rate of dissolution of pulverous specimens in water; type: physicochemical; conditions: 25°C
# Protocol: The respective solubilities of the three crystalline modifications have also been studied. The rate of dissolution of pulverous specimens in water was determined in the following manner: a finely ground powder formed from the crystalline form under study in a quantity twice as great as necessary to produce a saturated solution in water is placed in a receptacle containing 100 ml of distilled water. The suspension is stirred using a magnetic agitator (600 r.p.m.) at a temperature of 25°C. At predetermined time intervals, samples are taken and, after filtering through a Milipor filter ([…]) they are diluted to the necessary volume for performing a quantitative determination. For this purpose, an absorption maximum at 250 nm is used.
# [3] = Stability in aqueous solution (injectible compositions) of different crystalline forms; type: physicochemical; conditions: dihydrochloride; for Content of active substance in the solution in %, In storing 1 year: stored 1 year; for Content of active substance in the solution in %, In storing 3 years: stored 3 years
# Description: Table 3 indicates comparative data concerning the stability of injectible forms of pharmaceutical compositions containing either crystalline form "A" according to the present invention and form "B" (aligerone prepared according to the method described in the aforementioned references to Zikolova and Ninov).
# [4] = Hygroscopicity study of ground samples in a humidity chamber; type: physicochemical; conditions: 90% humidity, 25°C, period of 30 days
# Protocol: Hygroscopicity studies have been carried out by placing samples of the three crystalline forms with the same particle size resulting from grinding of samples of the three crystalline forms in a vibratory mill. The studies take place in a chamber with 90% humidity and at a temperature of 25°C. At intervals, samples are taken in order to determine their water content and their crystalline structure by means of the methods described hereinabove. […] They are not hygroscopic and are physically stable under the test conditions..
# [5] = Stability study of the solid forms under ambient storage conditions in light-permeable glass jars; type: physicochemical; conditions: ambient storage in glass jars permitting passage of light; over one year and after three years
# Description: More exhaustive stability studies have been performed under ambient storage conditions in glass jars which permit the passage of light therethrough. […] The three crystalline forms are chemically and physically stable under normal storage conditions.
# [6] = system: blood vessels of the brain; conditions: from Zikolova and Ninov and Drugs of the Future 1980, 5(1); cited from earlier work
# [7] = powder in 100 ml distilled water, 600 r.p.m.
smiles,measurement,setting,value
"C=CCN1CCN(C(c2ccccc2)c2ccccc2)CC1.Cl.Cl.O.O [Crystalline hydrate, 1-benzhydryl-4-allylpiperazine dihydrochloride dihydrate, reference compound]",Initial rate of dissolving,[1],0.333 mg/mL/min
same,time until solubility reaches a constant value,[2]; [7],60 min
"C=CCN1CCN(C(c2ccccc2)c2ccccc2)CC1.Cl.Cl [Form ""A"", 1-benzhydryl-4-allyl-piperazine dihydrochloride]",time to attain maximum solubility,[2]; [7],≤ 2 min
same,time until solubility reaches a constant value,"[2]; powder in 100 ml distilled water, 600 r.p.m., listed as form ""A"", dihydrochloride",10 min
same,solubility in comparison with the other crystalline forms,"[2]; water, compared with anhydrous form ""B"" and the crystalline hydrate",higher equilibrium solubility
same,"Content of active substance in the solution in %, Initial concentration",[3]; listed as A,1.251%
same,"Content of active substance in the solution in %, In storing 1 year",[3]; listed as A,1.250%
same,"Content of active substance in the solution in %, In storing 3 years",[3]; listed as A,1.198%
same,hygroscopicity (water absorption),[4],non-hygroscopic
same,chemical and physical stability on storage,[5],stable on storage under normal conditions
"C=CCN1CCN(C(c2ccccc2)c2ccccc2)CC1.Cl.Cl [Form ""B"", 1-benzhydryl-4-allylpiperazine dihydrochloride]",Initial rate of dissolving,"[1]; listed as B, dihydrochloride",0.467 mg/mL/min
same,time until solubility reaches a constant value,"[2]; powder in 100 ml distilled water, 600 r.p.m., listed as form ""B"", dihydrochloride",60 min
same,"Content of active substance in the solution in %, Initial concentration",[3]; listed as B,1.255%
same,"Content of active substance in the solution in %, In storing 1 year",[3]; listed as B,1.105%
same,"Content of active substance in the solution in %, In storing 3 years",[3]; listed as B,0.925%
"C=CCN1CCN(C(c2ccccc2)c2ccccc2)CC1.Cl.Cl [aligerone, 1-benzhydryl-4-allyl-piperazine dihydrochloride]",effect on blood circulation and oxygen concentration of the brain compared with cinnarizine,[6],stronger than that of cinnarizine
